Results: patent US20060166934A1, “Composition comprising phytosphingosine derivatives for apoptosis induction” (Tae-Yoon Kim, priority 2002, published 2006)

What was measured:
[1] = MTT assay, cytotoxicity in HUVEC; type: cell-based, human; conditions: human
Outline: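 Primary HUVEC cultured from human umbilical vein; cells in serum-free medium were exposed to phytosphingosine derivatives at final 1–100 μM for 24 h. Viability by MTT (2 mg/ml, 4 h), formazan dissolved in DMSO and read at O.D. 540 nm; C2-ceramide run for comparison.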

[2] = MTT assay, cytotoxicity in human keratinocyte cell line; type: cell-based; conditions: human, Cell viability
Outline: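 HaCaT keratinocytes, 1-2×10^4 cells per well in serum-free medium, treated 24 h with phytosphingosine derivatives (1-100 μM, DMSO vehicle). Viability by MTT (2 mg/ml, 4 h), formazan dissolved in DMSO, O.D. read at 540 nm.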

[3] = MTT assay, cytotoxicity in immune cells separated from spleen of mice; type: cell-based; conditions: BDF, mouse
Protocol: (§1) The effect of the composition of the present invention on the cytotoxicity in immune cells (T cells, B cells, macrophages, monocytes, etc.) was examined. The spleen was removed from normal mice (BDF) and single cells were obtained from the spleen by mechanical aggregation method. And mononuclear cells containing T cells, B cells, macrophages and monocytes were isolated from single cells by density gradient centrifugation method using Ficoll Hypaque. Briefly, single cells were treated with PBS and overlayed on Ficoll Hypaque and centrifuged at 1500 rpm for 30 min. After centrifugation, the cells around the boundary of the Ficoll-Hapaque were collected and washed three times with PBS. The isolated cells were cultured for 24 hours in the presence of 1, 10, 50 and 100 μM of NAPS, TAPS, and PS to examine the effect of cytotoxicity, i.e. the degree of proliferation of the cells. C2-ceramide was used as control. The medium used in this experiment was RPMI 1640 suplemented with 10% of FBS and 100 μg/ml of penicillin and streptomycin.

Chk1 = experiment: Immunoblot analysis of Chk1; type: cell-based, human; conditions: 30 μM, FIGS. 12 and 13
Protocol: (§2) In the confirmation of apoptosis-related proteins, the immunoblot analysis is performed in order to look into the effects of the compositions of the present invention on the expression of caspase-3, p53, and Chk1 proteins related to the induction of apoptosis. HaCaT cells are cultured on a 100-mm dish and collected at the indicative time. The proteins are extracted by adding 500 μl of RIPA lysis buffer (1% Nonidet P-40, 1% sodium deoxycholate, 0.1% SDS, […], 0.01 M sodium phosphate, pH 7.2, 2 mM EDTA, 50 mM sodium fluoride and 0.2 mM sodium vanadate), and the concentration is measured by using the Bradford method. 1 Extracted proteins is electrophoresed on 12% polyacrylamide gel, and they are transferred to the nitrocellulose membrane. The membrane blocked with 5% non-fat milk is reacted with the primary antibodies (caspase-3, p53, and Chk1), washed, and reacted with the secondary HRP-conjugated antibody. The intensity of proteins is analyzed by using the ECL kit.

p53 = experiment: Immunoblot analysis of p53; type: cell-based, human; conditions: 30 μM, FIG. 12
Protocol: as §2

[4] = test system: peripheral blood mononuclear cells (PBMC); experiment: MTT assay, cytotoxicity in peripheral blood mononuclear cells; type: cell-based, human; conditions: FIG. 3
Protocol: The effects of the composition of the present invention on the cytotoxicity in immune cells (T cells, B cells, macrophages, monocytes, etc.) obtained from human blood were examined. The blood was obtained from healthy volunteers and PBMC from the blood by mechanical aggregation method. And mononuclear cells containing T cells, B cells, macrophages and monocytes were isolated from single cells by density gradient centrifugation method using Ficoll Hypaque. Briefly, single cells were treated with PBS and overlayed on Ficoll Hypaque and centrifuged at 1500 rpm for 30 min. After centrifugation, the cells around the boundary of the Ficoll-Hapaque were collected and washed three times with PBS. […] And RPMI with 10% of serum was used as a medium. The isolated cells were cultured for 24 hours in the presence of 1, 10, 50 and 100 μM of NAPS, TAPS, and PS to examine the effect of cytotoxicity, i.e. the degree of proliferation of the cells. C2-ceramide was used as control.

[5] = test system: immune cells (T cells, B cells, macrophages, monocytes) from spleen of mice; experiment: MTT assay, cytotoxicity in immune cells separated from spleen of mice; type: cell-based; conditions: mouse spleen immune cells, 24 hours, FIG. 2; read-out: IC50 (cytotoxicity)
Protocol: as §1

HaCaT cells = experiment: Mitosis by immunofluorescence (β-tubulin, DAPI); type: cell-based, human; conditions: 30 μM, 24 hours versus 12 hours, FIG. 9
Protocol: Next, the cell cycle is observed according to the immunofluorescence method. In order to look into from which step among G2/M phase the induction of apoptosis by TAPS is induced, mitosis is observed by using β-tubulin. HaCaT cells are cultured on a dish with a cover slip and treated with TAPS (30 μM). The cells are washed with PBS at each time interval, fixed with 5% paraformaldehyde for 15 minutes, and reacted with β-tubulin antibody (1:100) for 1 hour. They were washed with PBS and reacted with Cy3-conjugated anti-mouse IgG secondarily. For DNA staining, 0.3 μg/ml of DAPI (Sigma) is added to the cells, which are observed by using a fluorescent microscope.

| Molecule | viability at 24 h, 3.5 µM [1] | viability at 24 h, 7 µM [1] | viability at 24 h, 15 µM [1] | viability at 24 h, 30 µM [1] | viability at 24 h, 1 µM [2] | viability at 24 h, 3 µM [2] | viability at 24 h, 10 µM [2] | viability at 24 h, 30 µM [2] | IC50 at 24 h [3] | Chk1 protein (Chk1; at 8-hour) | Chk1 protein (Chk1; at 24 hour) | p53 protein (p53; at 8-hour) | p53 protein (p53; at 24 hour) | concentration that shows the strong cytotoxicity ([4]; human PBMC) | cytotoxicity to PBMC ([4]; up to 100 μM, 24 hours) | IC50 [5] | cells with chromosomes condensed (HaCaT cells) |
| --- | --- | --- | --- | --- | --- | --- | --- | --- | --- | --- | --- | --- | --- | --- | --- | --- | --- |
| CCCCCCCCCCCCCC[C@@H](O)[C@@H](O)[C@H](CO)NC(C)=O [NAPS, N-acetyl phytosphingosine] | 66 ± 7.5% | 51 ± 10.5% | 19 ± 3.4% | 14 ± 0.6% | 103 ± 6.9% | 99 ± 3.5% | 86 ± 2.1% | 17 ± 0.8% | ~75 µM | – | – | – | – | – | – | – | – |
| tetraacetyl phytosphingosine [TAPS] | – | – | – | – | – | – | – | – | – | not changed greatly | rapid reduction | not changed greatly | rapid reduction | 50 µM | strong cytotoxicity | 100 µM | more cells with chromosomes condensed are observed 24 hours after treating with TAPS than 12 hours after |
